System: TCR27-AKD10R3 cells
Assay: X-scan (peptide scan), EGFP reporter effector cells
Format: cell-based, murine
Conditions: Fig. 1c source data, HLA B*07, T2 cells pulsed with 25 μg peptide per 1 × 10^6 cells, 2 h, 37 °C, effector cells 2:1 overnight, mean value of triplicate
Procedure: Tap-deficient T2 (174x CEM.T2) HLA-B*0702+ cells were received from Dr. Victor Engelhard. These and the commercially purchased Tap-deficient T2 (174 x CEM.T2) cells (ATCC CRL 1991) were maintained in RPMI 1640 (BioConcept) supplemented with 10% fetal calf serum (FCS, HyClone), 2mM L-glutamine and 1% Penicillin/Streptomycin at 37 °C and 5% CO2. The EGFP reporter cell line was based on a murine TCR negative thymoma cell line derived from strain BW5417 (ATCC®TIB-47TM) and was stably transduced with (a) TCR27 in which the human constant regions were replaced with those of mouse, (b) a chimeric mouse/human CD8, and (c) an EGFP reporter construct linked to a minimal IL-2 promoter comprising three NFAT-binding sites (3xNFAT)[44]. The transduced cells were termed TCR27-AKD10R3 cells and will be called the effector cells. Mouse cell lines were cultured in SF-IMDM (BioConcept) supplemented with 3% FCS, 1% Penicillin/Streptomycin, and 50 μM beta-mercaptoethanol at 37 °C and 10% CO2.
Peptides were dissolved in dimethyl sulfoxide (DMSO) at concentrations of 2–20 mg/mL, aliquoted and stored at −80 °C. Peptide-pulsing experiments were performed by pre-incubating T2 cells with 25 μg peptide per 1 × 10^6 cells in PBS for 2 h at 37 °C and 5% CO2, washed three times to remove unbound peptides and used for further downstream analysis. Peptide-pulsed T2 cells were incubated with effector cells in a 2:1 ratio overnight in SF-IMDM at 37 °C and 10% CO2, washed twice and stained with anti-mouse TCR-® chain clone H57-597 (BD Pharmingen #560656, 1:500) for 30 min at RT. Cells were washed twice before FACS-analysis using a BD FACS Canto II with System software v2.0. Data analysis was performed using FlowJo V10 Software. Binding affinity between each peptide and HLA-B*0702 was determined using an Alpha assay. It is a homogenous, proximity-based assay for detection of peptides binding to HLA class I molecules using a conformation-dependent anti-HLA class I antibody, W6/32, as one tag and a biotinylated recombinant HLA class I molecule as the other tag, and a proximity-based signal was generated through the luminescent oxygen channeling immunoassay technology (PerkinElmer) as described.
To identify the off-target peptides we have utilized an approach that was developed previously. In brief, we investigated which amino acids at each position in pMLL747–755 enable TCR interaction by sequentially replacing every amino acid position outside of the anchor positions 2 and 9 with all 19 alternative amino acids, resulting in 134 peptides (133 altered peptides plus original epitope). Each peptide was individually evaluated using cell-based in vitro cytotoxicity assay. To represent the TCR recognition kernel, we have defined Position Weight Matrices (PWMs) for each assay by assigning normalized measurements to each of the 20 amino acids in each position. To predict potential off-target peptides, we applied an algorithm projecting the PWM-defined kernel into the human proteome, scoring TCR27 recognition for the predicted HLA-B^*0702 binding 9-mer peptides. Of the 11 peptides with highest predicted cross-reactivity scores, we confirmed that only 2, […] and pDOT1L998–1006, strongly activated the TCR27-expressing effector T cells.

Substance: EPRsPPHSM [single-residue substitution of pMLL747–755, Pos 6]
- Percentage GFP positive from TCR+ cells: 0.96%

Substance: EPRsPQHSM [single-residue substitution of pMLL747–755, Pos 6]
- Percentage GFP positive from TCR+ cells: 0.89%

Substance: EPRsPRHSM [single-residue substitution of pMLL747–755, Pos 6]
- Percentage GFP positive from TCR+ cells: 0.98%

Substance: EPRsPSASM [single-residue substitution of pMLL747–755, Pos 7]
- Percentage GFP positive from TCR+ cells: 0.88%

Substance: EPRsPSCSM [single-residue substitution of pMLL747–755, Pos 7]
- Percentage GFP positive from TCR+ cells: 0.97%

Substance: EPRsPSDSM [single-residue substitution of pMLL747–755, Pos 7]
- Percentage GFP positive from TCR+ cells: 0.72%

Substance: EPRsPSESM [single-residue substitution of pMLL747–755, Pos 7]
- Percentage GFP positive from TCR+ cells: 1.15%

Substance: EPRsPSFSM [single-residue substitution of pMLL747–755, Pos 7]
- Percentage GFP positive from TCR+ cells: 0.97%

Substance: EPRsPSGSM [single-residue substitution of pMLL747–755, Pos 7]
- Percentage GFP positive from TCR+ cells: 0.85%

Substance: EPRsPSHAM [single-residue substitution of pMLL747–755, Pos 8]
- Percentage GFP positive from TCR+ cells: 8.72%

Substance: EPRsPSHCM [single-residue substitution of pMLL747–755, Pos 8]
- Percentage GFP positive from TCR+ cells: 4.53%

Substance: EPRsPSHDM [single-residue substitution of pMLL747–755, Pos 8]
- Percentage GFP positive from TCR+ cells: 5.87%

Substance: EPRsPSHEM [single-residue substitution of pMLL747–755, Pos 8]
- Percentage GFP positive from TCR+ cells: 8.26%

Substance: EPRsPSHFM [single-residue substitution of pMLL747–755, Pos 8]
- Percentage GFP positive from TCR+ cells: 1.28%

Substance: EPRsPSHGM [single-residue substitution of pMLL747–755, Pos 8]
- Percentage GFP positive from TCR+ cells: 1.39%

Substance: EPRsPSHHM [single-residue substitution of pMLL747–755, Pos 8]
- Percentage GFP positive from TCR+ cells: 3.9%

Substance: EPRsPSHIM [single-residue substitution of pMLL747–755, Pos 8]
- Percentage GFP positive from TCR+ cells: 3.8%

Substance: EPRsPSHKM [single-residue substitution of pMLL747–755, Pos 8]
- Percentage GFP positive from TCR+ cells: 2.14%

Substance: EPRsPSHLM [single-residue substitution of pMLL747–755, Pos 8]
- Percentage GFP positive from TCR+ cells: 6.68%

Substance: EPRsPSHMM [single-residue substitution of pMLL747–755, Pos 8]
- Percentage GFP positive from TCR+ cells: 5.43%

Substance: EPRsPSHNM [single-residue substitution of pMLL747–755, Pos 8]
- Percentage GFP positive from TCR+ cells: 2.91%

Substance: EPRsPSHPM [single-residue substitution of pMLL747–755, Pos 8]
- Percentage GFP positive from TCR+ cells: 2.91%

Substance: EPRsPSHQM [single-residue substitution of pMLL747–755, Pos 8]
- Percentage GFP positive from TCR+ cells: 2.83%

Substance: EPRsPSHRM [single-residue substitution of pMLL747–755, Pos 8]
- Percentage GFP positive from TCR+ cells: 1.29%

Substance: EPRsPSHTM [single-residue substitution of pMLL747–755, Pos 8]
- Percentage GFP positive from TCR+ cells: 1.97%

Substance: EPRsPSHVM [single-residue substitution of pMLL747–755, Pos 8]
- Percentage GFP positive from TCR+ cells: 3.82%

Substance: EPRsPSHWM [single-residue substitution of pMLL747–755, Pos 8]
- Percentage GFP positive from TCR+ cells: 0.87%

Substance: EPRsPSHYM [single-residue substitution of pMLL747–755, Pos 8]
- Percentage GFP positive from TCR+ cells: 1.1%

Substance: EPRsPSISM [single-residue substitution of pMLL747–755, Pos 7]
- Percentage GFP positive from TCR+ cells: 1.77%

Substance: EPRsPSKSM [single-residue substitution of pMLL747–755, Pos 7]
- Percentage GFP positive from TCR+ cells: 0.69%

Substance: EPRsPSLSM [single-residue substitution of pMLL747–755, Pos 7]
- Percentage GFP positive from TCR+ cells: 0.77%

Substance: EPRsPSMSM [single-residue substitution of pMLL747–755, Pos 7]
- Percentage GFP positive from TCR+ cells: 1.05%

Substance: EPRsPSNSM [single-residue substitution of pMLL747–755, Pos 7]
- Percentage GFP positive from TCR+ cells: 1.24%

Substance: EPRsPSPSM [single-residue substitution of pMLL747–755, Pos 7]
- Percentage GFP positive from TCR+ cells: 0.81%

Substance: EPRsPSQSM [single-residue substitution of pMLL747–755, Pos 7]
- Percentage GFP positive from TCR+ cells: 2.94%

Substance: EPRsPSRSM [single-residue substitution of pMLL747–755, Pos 7]
- Percentage GFP positive from TCR+ cells: 1.16%

Substance: EPRsPSSSM [single-residue substitution of pMLL747–755, Pos 7]
- Percentage GFP positive from TCR+ cells: 1.6%

Substance: EPRsPSTSM [single-residue substitution of pMLL747–755, Pos 7]
- Percentage GFP positive from TCR+ cells: 3.23%

Substance: EPRsPSVSM [single-residue substitution of pMLL747–755, Pos 7]
- Percentage GFP positive from TCR+ cells: 2.51%

Substance: EPRsPSWSM [single-residue substitution of pMLL747–755, Pos 7]
- Percentage GFP positive from TCR+ cells: 1.19%

Substance: EPRsPSYSM [single-residue substitution of pMLL747–755, Pos 7]
- Percentage GFP positive from TCR+ cells: 2.33%

Substance: EPRsPTHSM [single-residue substitution of pMLL747–755, Pos 6]
- Percentage GFP positive from TCR+ cells: 1.88%

Substance: EPRsPVHSM [single-residue substitution of pMLL747–755, Pos 6]
- Percentage GFP positive from TCR+ cells: 0.85%

Substance: EPRsPWHSM [single-residue substitution of pMLL747–755, Pos 6]
- Percentage GFP positive from TCR+ cells: 0.66%

Substance: EPRsPYHSM [single-residue substitution of pMLL747–755, Pos 6]
- Percentage GFP positive from TCR+ cells: 0.75%

Substance: EPRsQSHSM [single-residue substitution of pMLL747–755, Pos 5]
- Percentage GFP positive from TCR+ cells: 0.72%

Substance: EPRsRSHSM [single-residue substitution of pMLL747–755, Pos 5]
- Percentage GFP positive from TCR+ cells: 0.73%

Substance: EPRsSSHSM [single-residue substitution of pMLL747–755, Pos 5]
- Percentage GFP positive from TCR+ cells: 0.79%

Substance: EPRsTSHSM [single-residue substitution of pMLL747–755, Pos 5]
- Percentage GFP positive from TCR+ cells: 0.78%

Substance: EPRsVSHSM [single-residue substitution of pMLL747–755, Pos 5]
- Percentage GFP positive from TCR+ cells: 0.96%

Substance: EPRsWSHSM [single-residue substitution of pMLL747–755, Pos 5]
- Percentage GFP positive from TCR+ cells: 1.08%

Substance: EPRsYSHSM [single-residue substitution of pMLL747–755, Pos 5]
- Percentage GFP positive from TCR+ cells: 1%

Substance: EPSsPSHSM [single-residue substitution of pMLL747–755, Pos 3]
- Percentage GFP positive from TCR+ cells: 2.7%

Substance: EPTsPSHSM [single-residue substitution of pMLL747–755, Pos 3]
- Percentage GFP positive from TCR+ cells: 1.16%

Substance: EPVsPSHSM [single-residue substitution of pMLL747–755, Pos 3]
- Percentage GFP positive from TCR+ cells: 2.11%

From paper PMC10290117, “Molecular mechanism of phosphopeptide neoantigen immunogenicity” (Nature Communications, 2023)
